The values below come from ChEMBL document CHEMBL3507680, “University of Dundee, Gates Library screen for HepG2 cell viability”.

The nature of this series: Human HepG2 cell viability assay in 384 well format. Details: dose 125 nL, time 70.5 hour; cytotoxicity at 70.5 h: concentration not given beside the values. The note with it: HepG2 cells, read-out: Inhibition. The class given is toxicity, cell-based.
Consider `C=C(C)CN(CC)C(=O)CN(C)C1CCc2ccccc21` (stereo unspecified), for which the cytotoxicity at 70.5 h is -2.32%.

With `COc1ccc(CNCc2c(C(C)C)nn(C)c2N(C)C)cn1`, the cytotoxicity at 70.5 h is 0.065%.

On to `Cc1nc(-c2ccsc2)ccc1C(=O)NCCN1CCN(C)CC1`, for which the cytotoxicity at 70.5 h was 0.295%.

As to `Cc1nc(-c2ccsc2)ccc1C(=O)NCCCN1CCOCC1`, the cytotoxicity at 70.5 h is -5.66%.

With `CCNC(=O)CN1CCN(Cc2nc3c(F)cccc3n2CC)CC1`, the cytotoxicity at 70.5 h was 0.0175%.

On to `O=C(CN1CCC(c2ccccc2)C1)NCC(F)(F)F` (stereo unspecified), for which the cytotoxicity at 70.5 h came out at 1.22%.

Take `O=C(Cc1c(F)cccc1Cl)N1CCC(Nc2cccnn2)CC1`: the cytotoxicity at 70.5 h was -1.25%.

Consider `CCNc1cc2c(nn1)CCN(C(=O)c1cccc(CSC)c1)C2`, for which the cytotoxicity at 70.5 h was -3.17%.

`CCNc1cc2c(nn1)CCN(C(=O)c1ccc(C(N)=O)cc1)C2`: the cytotoxicity at 70.5 h is 20.2%.

For `COCC(c1cccc(C(F)(F)F)c1)N(C)C(=O)c1ccoc1` (stereo unspecified), the cytotoxicity at 70.5 h is -3.47%.

On to `Cc1noc(C)c1CC(=O)N1CCC(Nc2cccnn2)CC1`, for which the cytotoxicity at 70.5 h came out at 20.6%.

With `Cc1cnn(CCNCc2csc(-c3ccc(C(N)=O)cc3)n2)c1`, the cytotoxicity at 70.5 h was -1.79%.

As to `Cc1cc(NC(=O)CN2CCn3c(nnc3C3CC3)C2)on1`, the cytotoxicity at 70.5 h is -2.62%.

`O=C(CSc1ccccc1F)NS(=O)(=O)c1ccc2c(c1)OCCO2`: the cytotoxicity at 70.5 h was -0.308%.

For `Cc1noc(C)c1CC(=O)N1CCCN(Cc2cscn2)CC1`, the cytotoxicity at 70.5 h was -2.59%.

For `Cc1nc(C)n(CC2CCCCN2Cc2nc(-c3ccco3)no2)n1` (stereo unspecified), the cytotoxicity at 70.5 h was -5.26%.

With `Cc1nn(C)c(N2CCOCC2)c1CNCc1cscn1`, the cytotoxicity at 70.5 h is -9.09%.

As for `Cc1cc(C)n(CC2CCCN2C(=O)CCc2ccncc2)n1` (stereo unspecified), the cytotoxicity at 70.5 h was -6.13%.

For `Cc1nc(CNCc2c(C(C)C)nn(C)c2N2CCOCC2)cs1`, the cytotoxicity at 70.5 h is -7.63%.

`Cc1nc(C)n(CC2CCCN2Cc2nc(-c3ccsc3)no2)n1` (stereo unspecified): the cytotoxicity at 70.5 h came to 12.8%.

For the compound `Cc1cccc(-c2noc(CN3CCOC(Cn4cccn4)C3)n2)c1` (stereo unspecified), the cytotoxicity at 70.5 h is -11.5%.

As to `Cc1noc(C)c1CCC(=O)N1CCCN(Cc2cccs2)CC1`, the cytotoxicity at 70.5 h was -6%.

In the case of `CSC(C)C(=O)NCc1ccnc(N2CCN(C)CC2)c1` (stereo unspecified), the cytotoxicity at 70.5 h is -7.04%.

As for `COc1ccc(CNCC2CNc3cc(C)nn3C2)cn1` (stereo unspecified), the cytotoxicity at 70.5 h was -2.49%.

For the compound `Cc1csc(N2CCN(C(=O)C3(C#N)CCCCC3)CC2)n1`, the cytotoxicity at 70.5 h is -9.16%.

As to `CC(C(=O)NCc1ccc(N2CCN(C)CC2)nc1)n1cccn1` (stereo unspecified), the cytotoxicity at 70.5 h was -6.16%.

For `Cc1cc2n(n1)CC(CNCc1ccc(Oc3ccccc3)nc1)CN2` (stereo unspecified), the cytotoxicity at 70.5 h was 21.7%.

Consider `Cc1cc2n(n1)CC(CNCc1ccc(-n3cccn3)cc1)CN2` (stereo unspecified), for which the cytotoxicity at 70.5 h was -0.128%.

As to `CC(NCc1ccsc1)c1ccc2c(c1)NC(=O)CO2` (stereo unspecified), the cytotoxicity at 70.5 h is -13.9%.

As for `c1cncc(-c2noc(CN3CCOC(Cn4cccn4)C3)n2)c1` (stereo unspecified), the cytotoxicity at 70.5 h is -4.62%.

In the case of `Cc1nnc2n1CCN(Cc1ncc(-c3ccccc3)o1)C2`, the cytotoxicity at 70.5 h was -9.8%.

As to `COC(=O)c1cc(C(=O)N2CCC(C)CC2)n(-c2ccccc2)n1`, the cytotoxicity at 70.5 h was -6.41%.

As to `Cc1noc(C)c1C(C)C(=O)N1CCCN(Cc2cscn2)CC1` (stereo unspecified), the cytotoxicity at 70.5 h is -9.23%.

Take `CCc1nccn1C1CCCN(C(=O)c2ccc(NC3CC3)nc2)C1` (stereo unspecified): the cytotoxicity at 70.5 h is -2.23%.

On to `Cc1cc(C)n(CC2CCCN2C(=O)CCNc2ncccn2)n1` (stereo unspecified), for which the cytotoxicity at 70.5 h was -4.55%.

As for `O=C(c1ccc(NC2CC2)nc1)N1CCCC(n2ccnc2)C1` (stereo unspecified), the cytotoxicity at 70.5 h was -12.9%.

Regarding `CCc1nnc2n1CCN(Cc1ncc(-c3ccc(Cl)cc3)o1)C2`, the cytotoxicity at 70.5 h was -7.58%.

`Cc1nnc2n1CCN(Cc1ncc(-c3ccc(F)cc3)o1)C2`: the cytotoxicity at 70.5 h is -1.84%.

Turning to `Cc1ncc(CN2CCCN(Cc3noc(C4CC4)n3)CC2)s1`, the cytotoxicity at 70.5 h was 23.6%.

Consider `CC(C)OCCN1CCC(C(=O)c2cc(F)ccc2F)CC1`, for which the cytotoxicity at 70.5 h was 25%.

Turning to `CCOCCN1CCC(C(=O)c2cc(F)ccc2F)CC1`, the cytotoxicity at 70.5 h was determined as 17.7%.

With `CCc1ccc(C(=O)N2CCN(CC(O)CC)CC2)o1` (stereo unspecified), the cytotoxicity at 70.5 h is 46.5%.

As to `Cc1nc(CN2CCCC(NCc3cnc(C(C)(C)C)s3)C2)no1` (stereo unspecified), the cytotoxicity at 70.5 h was 2.91%.

Take `O=C(CN1CCCC1c1noc(C2CC2)n1)N1CCc2ccccc21` (stereo unspecified): the cytotoxicity at 70.5 h is -7.43%.

As to `CCc1ncc2c(n1)CN(Cc1cccc(OCC(N)=O)c1)CC2`, the cytotoxicity at 70.5 h came out at 1.32%.

Take `CN(C)CC(=O)N1CCN(CC(O)c2ccc(F)cc2)CC1` (stereo unspecified): the cytotoxicity at 70.5 h was -1.76%.

For `C=C(C)CN1CCC(C(=O)c2cc(F)ccc2F)CC1`, the cytotoxicity at 70.5 h was found to be 0.664%.

With `CC(C)c1nc(C2CCCN(C(=O)CCn3ccccc3=O)C2)no1` (stereo unspecified), the cytotoxicity at 70.5 h stood at 22.5%.

Take `Cc1nc(C2CCCN2CC(=O)N2CCc3ccccc32)no1` (stereo unspecified): the cytotoxicity at 70.5 h came to 21.3%.

With `CCc1noc(CNCCn2cc(C)cn2)n1`, the cytotoxicity at 70.5 h is -3.69%.

For the compound `CCOc1ccccc1OC1CCN(C(=O)c2[nH]nc(C)c2Br)CC1`, the cytotoxicity at 70.5 h is 0.076%.

Regarding `CCOc1ccccc1N1CCN(C(=O)c2cc[nH]n2)CC1`, the cytotoxicity at 70.5 h amounted to 0.935%.

As for `Cc1cc(C)c(CNC(=O)NCc2ccc(F)c(C)c2)c(=O)[nH]1`, the cytotoxicity at 70.5 h was -0.902%.

For the compound `Cc1cc(C)c(CNC(=O)NCc2ccncc2)c(=O)[nH]1`, the cytotoxicity at 70.5 h was -0.477%.

With `O=C(c1ccccc1)N1CCN(CC(O)c2ccc(F)cc2)CC1` (stereo unspecified), the cytotoxicity at 70.5 h was -11%.

For the compound `O=C(Cc1ccc(F)cc1)N1CCN(CC(O)c2ccccc2)CC1` (stereo unspecified), the cytotoxicity at 70.5 h is -4.51%.

`NC(=O)C1CCN(C(=O)NCc2cccnc2OCC(F)(F)F)C1` (stereo unspecified): the cytotoxicity at 70.5 h was -1.73%.

Consider `c1ccc(-c2nc(CNCCn3cccn3)cs2)nc1`, for which the cytotoxicity at 70.5 h is 19.2%.

For `CCc1ccc(C(=O)N2CCN(CC(O)c3ccccc3)CC2)o1` (stereo unspecified), the cytotoxicity at 70.5 h was 1.67%.

For the compound `Cc1nc(C2CCCN(C(=O)CCn3ccccc3=O)C2)no1` (stereo unspecified), the cytotoxicity at 70.5 h was -3.24%.

With `CCc1nc(C2CCCN2CCC(=O)N2CCc3ccccc32)no1` (stereo unspecified), the cytotoxicity at 70.5 h came out at 20.5%.

Regarding `Cc1nc(C2CCCN(C(=O)c3cc4c(s3)CCCC4)C2)no1` (stereo unspecified), the cytotoxicity at 70.5 h is 5.35%.

Consider `CCc1nc2n(n1)CC(NCC(=O)Nc1oc(C)c(C)c1C#N)CC2` (stereo unspecified), for which the cytotoxicity at 70.5 h turned out to be 7.08%.

Regarding `COc1c(C)cnc(CN2CCC(N(C)C(C)C(N)=O)CC2)c1C` (stereo unspecified), the cytotoxicity at 70.5 h was -2.64%.

Turning to `CCC(=O)N(C)C1CCN(Cc2ncc(C)c(OC)c2C)CC1`, the cytotoxicity at 70.5 h was -17.3%.

Regarding `Cc1nn(C)c(C)c1C1COCCN1C(=O)c1n[nH]c2ccccc12` (stereo unspecified), the cytotoxicity at 70.5 h was -10.8%.

With `CN(Cc1ccsc1)C(=O)c1cccc(F)c1`, the cytotoxicity at 70.5 h is -9.63%.

Consider `CC(C)c1nnc(CN2CCCC2Cn2cncn2)o1` (stereo unspecified), for which the cytotoxicity at 70.5 h was -11.1%.

`O=C(c1cccn1Cc1cccs1)N1CCN(C(=O)C2CC2)CC1`: the cytotoxicity at 70.5 h was -20.1%.

For the compound `c1cnnc(NCC2CN(Cc3cccc4c3OCCO4)CCO2)c1` (stereo unspecified), the cytotoxicity at 70.5 h was -20.6%.

Turning to `O=C(CS(=O)(=O)c1ccccc1Cl)NC1CCCCNC1=O` (stereo unspecified), the cytotoxicity at 70.5 h is -25.9%.

Turning to `CC(C)N(C)S(=O)(=O)N(C)Cc1ccc2c(c1)OCO2`, the cytotoxicity at 70.5 h turned out to be 20.7%.

Regarding `CC(Cn1cccn1)NC(=O)Nc1nccs1` (stereo unspecified), the cytotoxicity at 70.5 h is -21.9%.

For `CC(NC(=O)NCc1ccoc1)c1ccc2c(c1)CCC(=O)N2` (stereo unspecified), the cytotoxicity at 70.5 h amounted to 14.8%.

For the compound `CC(C)CN1CCC(C(=O)Nc2cc(C(F)(F)F)c[nH]c2=O)CC1`, the cytotoxicity at 70.5 h was -6.4%.

As to `CCOCCCn1c(NC(=O)c2scnc2C)nc2ccccc21`, the cytotoxicity at 70.5 h is 30.8%.

For the compound `CC(C)CN1CCN(C(=O)Nc2cc(C(F)(F)F)c[nH]c2=O)CC1`, the cytotoxicity at 70.5 h was -17.9%.

Consider `CCOCCCn1c(NC(=O)c2cnn(C)c2)nc2ccccc21`, for which the cytotoxicity at 70.5 h was -13.3%.

For `CCOCCCn1c(NC(=O)c2ccc(C)nc2)nc2ccccc21`, the cytotoxicity at 70.5 h is -5.03%.

For the compound `O=C(c1cccn1Cc1cccs1)N1CCN(C2CC2)CC1`, the cytotoxicity at 70.5 h was -10.4%.

On to `CCn1c(C(=O)N2CCN(C(=O)COC)CC2)cc2ccccc21`, for which the cytotoxicity at 70.5 h came out at 26.3%.

With `COC(=O)C(NC(=O)c1ccco1)c1cc(F)ccc1F` (stereo unspecified), the cytotoxicity at 70.5 h is -15.6%.

For the compound `CCOCC(O)CN1CCN(C(=O)c2cccnc2OC)CC1` (stereo unspecified), the cytotoxicity at 70.5 h was -18%.

In the case of `CNc1cc2c(nn1)CCN(C(=O)c1cccc3c1OCO3)C2`, the cytotoxicity at 70.5 h is -16.7%.

With `Cc1nn(C)c(C)c1C1COCCN1C(=O)c1ccccc1` (stereo unspecified), the cytotoxicity at 70.5 h was found to be 22.5%.

For the compound `COc1ccccc1CC(=O)NS(=O)(=O)c1ccc(C(N)=O)cc1`, the cytotoxicity at 70.5 h was -12.7%.

Consider `CC(CNc1cncc(-n2cccn2)n1)N(C)c1ccccc1` (stereo unspecified), for which the cytotoxicity at 70.5 h is 1.39%.

Regarding `CN1N=C(C(=O)Nc2cc(F)ccc2OCC2CCCO2)CCC1=O` (stereo unspecified), the cytotoxicity at 70.5 h is -20.2%.

On to `Nc1cc2c(nn1)CCN(C(=O)c1cccc3c1OCCO3)C2`, for which the cytotoxicity at 70.5 h is -14.7%.

Turning to `CN(CC1(O)CCCCC1)C1CCCN(Cc2noc(C3CC3)n2)C1` (stereo unspecified), the cytotoxicity at 70.5 h turned out to be 16.9%.

`Cc1cnn(C2CN(CC(=O)NCc3ccccn3)C2)c1`: the cytotoxicity at 70.5 h is 16.5%.

For `Cc1cc(CN(C)C2CCCN(Cc3noc(C4CC4)n3)C2)no1` (stereo unspecified), the cytotoxicity at 70.5 h came out at 11.8%.

For `CCOc1nnc(CN2CCC(N(C)Cc3noc(C)n3)C2)s1` (stereo unspecified), the cytotoxicity at 70.5 h is -8.7%.

In the case of `CCc1c(C(=O)N2CCN(c3ncccn3)CC2)cnn1C(C)(C)C`, the cytotoxicity at 70.5 h was -2.98%.

`Cc1ccc(CNC(=O)Nc2nnc(C)s2)cn1`: the cytotoxicity at 70.5 h is -5.53%.

As to `CCc1ccc(CNC(=O)N2CCN(Cc3cc(C)no3)CC2)s1`, the cytotoxicity at 70.5 h is 19.6%.

With `Cc1cc(CN2CCN(C(=O)NCc3nc(C)cs3)CC2)on1`, the cytotoxicity at 70.5 h is -11.7%.

As to `O=C(NCCn1ccnc1)c1ccn(-c2cccc(F)c2)n1`, the cytotoxicity at 70.5 h was found to be 12.4%.

For the compound `O=C(CCNc1ncccn1)NCCOc1ccc2c(c1)CCC2`, the cytotoxicity at 70.5 h is -16.3%.

Take `COc1cc(CCC(=O)NCC2CCCN2C)ccc1OCC(F)(F)F` (stereo unspecified): the cytotoxicity at 70.5 h was -7.43%.

In the case of `COc1ccc(CN(C)C(=O)NCc2c(C)cc(C)[nH]c2=O)cc1`, the cytotoxicity at 70.5 h is -4.65%.
